In brackets after ≈: the same amount, converted by molar mass.
Legend:
[1] = test system: Escherichia coli (ATCC 8739, Gram-negative); test: Minimum inhibitory concentration, microdilution assay; type: cell-based; conditions: 24 h, lowest concentration with no visible growth
Procedure: (§1) Staphylococcus aureus (ATCC 6538, Gram-positive), Escherichia coli (ATCC 8739, Gram-negative), Pseudomonas aeruginosa (ATCC 9027, Gram-negative), and Candida albicans (ATCC 10231, fungus) were used as representative microorganisms to challenge the antimicrobial functions of the oligomers. All bacteria and fungus were frozen at -80° C., and were grown overnight at 37° C. in Mueller Hinton Broth (MHB, BD Singapore) prior to experiments. Fungus was grown overnight at 22° C. in Yeast Mold Broth (YMB, BD Singapore). […] The plates were incubated at 37° C. for 24 h with constant shaking speed at 300 rpm. […] Medium solution containing microbial cells alone were used as control (100% microbial growth). The assay was performed in four replicates and the experiments were repeated at least two times.

[2] = test system: Pseudomonas aeruginosa (ATCC 9027, Gram-negative); test: as above; type: cell-based; conditions: 24 h, lowest concentration with no visible growth
Procedure: as §1

[3] = test system: Staphylococcus aureus (ATCC 6538, Gram-positive); test: as above; type: cell-based; conditions: 24 h, lowest concentration with no visible growth
Procedure: as §1

[4] = test system: Candida albicans (ATCC 10231, fungus); test: as above; type: cell-based; conditions: for MIC50 C.A. (value in brackets): Candida albicans, concentration inhibiting 50% fungal growth
Procedure: as §1, with “The plates were incubated at 37° C. for 24 h with constant shaking speed at 300 rpm.” left out

[5] = test system: C. albicans; test: Checkerboard assay of oligomers with triazoles (FIC); type: cell-based; conditions: Candida albicans; for FIC with Fluconazole: calculated from lowest concentration inhibiting at least 50% growth; for Alone MIC50 component A: oligomer alone
Procedure: […]. […] A row and a column in which a serial dilution of each agent was present alone were also prepared for MIC test. Then each solution in the well plate was inoculated with 100 μL of logarithmically grown 10^6 cells/ml C. albicans cells in the 96-well plate. The plate also contained a column with C. albicans only as control (100% cell growth). The cells were incubated at room temperature for 24 h with constant shaking, after which cell growth (i.e. the O.D. at 600 nm) was monitored with a microplate reader (TECAN) Synergy between fluconazole and oligomers was determined by calculating the fractional inhibitory concentration index ([…] was calculated as follows: FIC=(MIColigomer A in combination/MIColigomer A alone)+(MICazole B in combination/MICazole B alone). […] The interaction of selected oligomers with other triazoles such as itraconazole and voriconazole was also investigated using the checkerboard dilution method. For comparison, the interaction of the selected oligomer with a non-triazole antifungal agent […] was also investigated.

[6] = test system: mouse red blood cells (RBCs); test: Hemolysis study; type: cell-based; conditions: oligomer concentration giving 10% hemolysis, 1 h, 37° C.
Procedure: After 1 h incubation at 37° C., the mixture was centrifuged at 2000 rpm for 5 min. Aliquots (100 μl) of the supernatant were transferred to a 96-well plate. Hemolytic activity was determined as a function of hemoglobin release by measuring absorbance of the supernatant at 576 nm using a microplate reader. A control solution that contained only PBS was used as a reference for 0% hemolysis. Absorbance of red blood cells lysed with 0.5% Triton-X was taken as 100% hemolysis. The oligomer concentration which results in 10% hemolysis is indicated as HC10 in Table 1. The data were expressed as mean and S.D. of four replicates. % Hemolysis=[OD576 nm (polymer)−OD576 nm (PBS)]/[OD576 nm (Triton-X)−OD576 nm (PBS)]×100%

[7] = Critical micelle concentration; type: physicochemical
[8] = test system: Candida albicans; test: Killing efficacy of selected oligomers at 62 μg/ml (FIG. 1); type: cell-based; conditions: for Fungistatic or fungicidal: survivors at 24 h compared with 0 h
[9] = test system: C. albicans; type: cell-based, Candida albicans
[10] = test system: Staphylococcus aureus; test: Percentage growth after 24 hours with norfloxacin, IDPBX8 and 1:1 mixture (FIG. 2a); type: cell-based; conditions: IDPBX8 combined with norfloxacin, 1:1 weight ratio
[11] = test system: C. albicans; test: Growth of C. albicans with IDPBX8, fluconazole or combination (OD600, colony counting; FIG. 2b, 2c)
[12] = Candida albicans ~10^6 CFU/ml, YMB, room temperature, no visible growth
[13] = oligomer in combination with Fluconazole
[14] = oligomer in combination with Itraconazole
[15] = oligomer in combination with Voriconazole
[16] = oligomer with Fluconazole (Table 2)

## CCCCCCCC[N+]12CC[N+](C/C=C/C[N+]34CC[N+](CCCCCCCC)(CC3)CC4)(CC1)CC2.[Br-].[Br-].[Br-].[Br-] [DDB8]
[1]
  MIC E.C.: 8 µg/mL
[2]
  MIC P.A.: 125 µg/mL
[3]
  MIC S.A.: 4 µg/mL
[4]; [12]
  MIC C.A.: 125 µg/mL
[4]
  MIC50 C.A. (value in brackets): (16) μg/ml
[5]
  FIC with Fluconazole: 0.25
[6]
  HC10: >2000 µg/mL
[7]
  CMC: 1552 µg/mL
[8]; 62 μg/ml
  Fungistatic or fungicidal: fungistatic

## CCCCCCCC[n+]1ccn(Cc2ccc(C[N+]34CC[N+](Cc5ccc(C[N+]67CC[N+](Cc8ccc(Cn9cc[n+](CCCCCCCC)c9)cc8)(CC6)CC7)cc5)(CC3)CC4)cc2)c1.[Br-].[Br-].[Br-].[Br-].[Br-].[Br-] [IDPPX8]
[1]
  MIC E.C.: 62 µg/mL
[2]
  MIC P.A.: 500 µg/mL
[3]
  MIC S.A.: 8 µg/mL
[4]; [12]
  MIC C.A.: 62 µg/mL
[4]
  MIC50 C.A. (value in brackets): (8-31) μg/ml
[5]
  Interaction when applied together with voriconazole: Synergy
  FIC with Fluconazole: 0.25
  Alone MIC50 component A: 16 µg/mL
[5]; [13]
  Combined MIC50 component A: 2 µg/mL
[5]; [14]
  Combined MIC50 component A: 4 µg/mL
[5]; [15]
  Combined MIC50 component A: 4 µg/mL
[5]; [16]
  FIC: 0.19
[5]; oligomer with Itraconazole
  FIC: 0.50
[5]; oligomer with Voriconazole
  FIC: 0.30
[6]
  HC10: >2000 µg/mL
[7]
  CMC: 1552 µg/mL
[8]; 62 μg/ml
  Fungistatic or fungicidal: fungistatic

## OC(Cn1cncn1)(Cn1cncn1)c1ccc(F)cc1F [Fluconazole, fluconazole, reference compound]
[4]; ATCC10231, Candida albicans ~10^6 CFU/ml, YMB, room temperature, no visible growth
  MIC: 2 to 4 µg/mL (≈ 6.53 to 13.1 µM)
[5]; triazole alone, read-out: Alone MIC50 component B
  MIC50: 4 µg/mL
[5]; triazole alone
  Alone MIC50 component B: 2 µg/mL
[5]; triazole in combination with IDPBX8
  Combined MIC50 component B: 0.5 µg/mL
[5]; triazole in combination with IDPPX8
  Combined MIC50 component B: 0.25 µg/mL
[5]; triazole in combination with IIDPPBX8
  Combined MIC50 component B: 2 µg/mL
[8]; 62 μg/ml, 24 h
  Number of surviving C. albicans after 24 h treatment compared with control: significantly less than the untreated control
[8]; 62 μg/ml
  Fungistatic or fungicidal: fungistatic rather than fungicidal
[9]; grown at 1/4 MIC, 31th passage
  MIC increase by the 31th passage: 8 times of the original MIC

## CCCCCCCC[n+]1ccn(Cc2ccc(C[N+]34CC[N+](C/C=C/C[N+]56CC[N+](Cc7ccc(Cn8cc[n+](CCCCCCCC)c8)cc7)(CC5)CC6)(CC3)CC4)cc2)c1.[Br-].[Br-].[Br-].[Br-].[Br-].[Br-] [IDPBX8]
[1]
  MIC E.C.: 31 µg/mL
[2]
  MIC P.A.: 62 µg/mL
[3]
  MIC S.A.: 16 µg/mL
[4]; [12]
  MIC C.A.: 8 to 31 µg/mL
[4]
  MIC50 C.A. (value in brackets): (2-8) μg/ml
[5]
  Interaction when applied together with voriconazole: Synergy
  FIC with Fluconazole: 0.38
  Alone MIC50 component A: 8 µg/mL
[5]; [13]
  Combined MIC50 component A: 1 µg/mL
[5]; [14]
  Combined MIC50 component A: 1 µg/mL
[5]; [15]
  Combined MIC50 component A: 2 µg/mL
[5]; [16]
  FIC: 0.38
[5]; oligomer with Itraconazole
  FIC: 0.62
[5]; oligomer with Voriconazole
  FIC: 0.31
[6]
  HC10: >2000 µg/mL
[7]
  CMC: 1456 µg/mL
[10]
  Efficacy of combination versus single agents: did not show improved efficacy
[8]; 62 μg/ml, after 24 h treatment
  Killing: 99%
[8]; 62 μg/ml, after 48 h
  Killing: 99.99%
[8]; IDPBX8 compared with IIDPPBX8
  Killing kinetics: kills faster
[9]; 36 consecutive days of treatment
  Resistance developed by C. albicans: no significant resistance was developed
[9]; grown at 1/4 MIC
  MICs over the entire 36 passages: relatively stable
[11]
  Total concentration of the combination at which killing effect was observed: 2 µg/mL
[11]; IDPBX8 combined with fluconazole, 1:1 weight ratio, 24 h
  Activity of combination versus single agents: higher activity than each compound/medicine used alone
